Tests used:
[1] = target: T1, Mitogen-activated protein kinase kinase kinase 6 (Homo sapiens) (UniProt O95382); experiment: Selectivity interaction (KinomeScan (DiscoverX)) EUB0000092b MAP3K6; conditions: at 10 µM
T1 sequence (whole entry): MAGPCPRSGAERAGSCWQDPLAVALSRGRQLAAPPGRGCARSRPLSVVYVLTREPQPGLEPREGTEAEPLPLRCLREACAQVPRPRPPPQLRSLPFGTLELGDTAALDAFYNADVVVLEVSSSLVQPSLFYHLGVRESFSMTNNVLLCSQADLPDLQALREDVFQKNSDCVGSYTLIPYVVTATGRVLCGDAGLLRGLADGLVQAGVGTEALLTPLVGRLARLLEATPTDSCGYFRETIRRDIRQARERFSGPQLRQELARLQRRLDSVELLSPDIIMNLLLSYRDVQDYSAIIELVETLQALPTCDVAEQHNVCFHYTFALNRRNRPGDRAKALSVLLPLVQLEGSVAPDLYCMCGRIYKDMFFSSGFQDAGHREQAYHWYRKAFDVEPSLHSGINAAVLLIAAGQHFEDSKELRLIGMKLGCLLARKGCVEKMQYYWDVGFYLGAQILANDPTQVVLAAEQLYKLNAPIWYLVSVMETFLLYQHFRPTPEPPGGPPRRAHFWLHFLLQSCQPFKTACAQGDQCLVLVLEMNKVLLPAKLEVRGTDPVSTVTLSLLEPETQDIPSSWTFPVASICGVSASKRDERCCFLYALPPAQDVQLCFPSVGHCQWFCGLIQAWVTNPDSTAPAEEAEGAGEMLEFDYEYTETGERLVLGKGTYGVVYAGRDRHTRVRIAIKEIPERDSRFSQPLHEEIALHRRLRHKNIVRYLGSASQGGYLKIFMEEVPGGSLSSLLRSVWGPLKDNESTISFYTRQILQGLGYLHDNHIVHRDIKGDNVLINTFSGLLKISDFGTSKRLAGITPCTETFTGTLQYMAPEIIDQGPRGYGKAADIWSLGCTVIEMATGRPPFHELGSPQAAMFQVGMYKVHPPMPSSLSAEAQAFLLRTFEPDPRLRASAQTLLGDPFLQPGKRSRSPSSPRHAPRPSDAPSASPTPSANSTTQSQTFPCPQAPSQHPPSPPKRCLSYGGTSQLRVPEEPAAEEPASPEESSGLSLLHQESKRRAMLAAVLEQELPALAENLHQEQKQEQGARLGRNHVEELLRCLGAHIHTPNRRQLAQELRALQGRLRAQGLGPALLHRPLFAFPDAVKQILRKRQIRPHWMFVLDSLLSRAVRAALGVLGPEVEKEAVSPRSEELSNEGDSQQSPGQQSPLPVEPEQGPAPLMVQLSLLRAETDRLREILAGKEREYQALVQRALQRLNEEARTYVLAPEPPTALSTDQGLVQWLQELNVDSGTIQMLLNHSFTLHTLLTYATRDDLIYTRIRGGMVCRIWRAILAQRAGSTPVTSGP

[2] = target: T2, Serine/threonine-protein kinase STK11 (Homo sapiens) (UniProt Q15831); experiment: Selectivity interaction (Kinase panel (KiNativ target engagement assay in Jurkat cells)) EUB0001635a STK11; type: cell-based; conditions: Selectivity number of off-targets 0.0, Selectivity number of targets 233.0, Source Knowledge https://www.sciencedirect.com/science/article/pii/S2451945619300674?via%3Dihub, at 1 µM
T2 sequence (whole entry): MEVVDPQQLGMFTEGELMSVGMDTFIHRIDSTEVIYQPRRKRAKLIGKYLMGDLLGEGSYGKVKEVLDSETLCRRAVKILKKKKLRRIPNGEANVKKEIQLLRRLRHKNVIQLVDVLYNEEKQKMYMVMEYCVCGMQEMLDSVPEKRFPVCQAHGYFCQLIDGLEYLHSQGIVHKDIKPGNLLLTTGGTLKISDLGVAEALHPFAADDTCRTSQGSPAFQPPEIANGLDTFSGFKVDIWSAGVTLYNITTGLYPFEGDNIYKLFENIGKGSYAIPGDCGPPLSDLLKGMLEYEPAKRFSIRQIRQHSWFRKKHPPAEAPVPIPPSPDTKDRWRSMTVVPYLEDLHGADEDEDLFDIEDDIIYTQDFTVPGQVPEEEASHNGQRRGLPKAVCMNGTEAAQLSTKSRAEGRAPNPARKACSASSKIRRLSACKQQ

[3] = target: ALK tyrosine kinase receptor (Homo sapiens, UniProt Q9UM73); experiment: Selectivity interaction (Kinase panel (33PanQinase(R) Activity Assay)) EUB0000877a ALK
Chain of ALK tyrosine kinase receptor (Q9UM73 whole entry): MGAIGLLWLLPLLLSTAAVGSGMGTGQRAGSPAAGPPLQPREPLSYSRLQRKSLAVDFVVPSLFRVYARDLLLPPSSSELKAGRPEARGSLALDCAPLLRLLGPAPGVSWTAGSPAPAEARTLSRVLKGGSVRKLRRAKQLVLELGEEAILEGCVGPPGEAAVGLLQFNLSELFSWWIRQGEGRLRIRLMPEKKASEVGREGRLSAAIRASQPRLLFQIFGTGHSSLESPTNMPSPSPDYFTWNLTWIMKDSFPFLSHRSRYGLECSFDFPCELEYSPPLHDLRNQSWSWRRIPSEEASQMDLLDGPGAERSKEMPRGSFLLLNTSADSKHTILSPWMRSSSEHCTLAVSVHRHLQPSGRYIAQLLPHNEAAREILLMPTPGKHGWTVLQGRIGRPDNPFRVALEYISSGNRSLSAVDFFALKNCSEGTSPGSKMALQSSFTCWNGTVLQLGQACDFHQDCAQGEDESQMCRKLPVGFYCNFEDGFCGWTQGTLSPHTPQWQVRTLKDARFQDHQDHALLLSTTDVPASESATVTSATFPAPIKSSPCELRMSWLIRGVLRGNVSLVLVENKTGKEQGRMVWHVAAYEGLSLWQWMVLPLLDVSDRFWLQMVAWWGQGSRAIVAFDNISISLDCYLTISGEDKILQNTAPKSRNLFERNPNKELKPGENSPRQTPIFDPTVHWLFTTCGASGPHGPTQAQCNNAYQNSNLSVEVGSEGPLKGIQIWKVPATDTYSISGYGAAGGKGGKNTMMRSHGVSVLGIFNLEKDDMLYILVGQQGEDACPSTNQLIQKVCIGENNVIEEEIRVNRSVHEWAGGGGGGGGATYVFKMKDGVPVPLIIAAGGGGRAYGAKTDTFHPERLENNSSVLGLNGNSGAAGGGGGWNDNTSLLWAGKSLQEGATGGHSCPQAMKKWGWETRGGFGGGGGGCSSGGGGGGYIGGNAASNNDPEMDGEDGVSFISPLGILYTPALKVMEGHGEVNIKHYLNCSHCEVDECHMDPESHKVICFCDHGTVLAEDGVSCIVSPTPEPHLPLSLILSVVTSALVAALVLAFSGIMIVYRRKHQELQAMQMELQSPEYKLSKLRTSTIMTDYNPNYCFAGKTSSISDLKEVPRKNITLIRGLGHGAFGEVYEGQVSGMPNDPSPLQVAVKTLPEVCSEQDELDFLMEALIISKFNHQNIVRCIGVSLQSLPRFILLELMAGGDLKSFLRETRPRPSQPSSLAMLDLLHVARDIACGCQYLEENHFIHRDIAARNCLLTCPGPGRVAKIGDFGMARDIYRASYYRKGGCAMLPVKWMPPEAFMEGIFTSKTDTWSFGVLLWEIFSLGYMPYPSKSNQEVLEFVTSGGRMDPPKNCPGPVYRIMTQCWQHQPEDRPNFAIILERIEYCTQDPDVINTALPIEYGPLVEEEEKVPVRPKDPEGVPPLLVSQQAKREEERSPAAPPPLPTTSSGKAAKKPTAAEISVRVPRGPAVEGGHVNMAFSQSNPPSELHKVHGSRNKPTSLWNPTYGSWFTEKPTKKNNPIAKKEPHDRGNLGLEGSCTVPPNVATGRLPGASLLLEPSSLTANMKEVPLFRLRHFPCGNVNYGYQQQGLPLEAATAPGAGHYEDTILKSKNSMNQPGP

[4] = target: CDK9/cyclin T1 (Homo sapiens) (UniProt O60563+P50750); experiment: Selectivity interaction (Adapta Assay) EUB0001632a CDK9; type: protein-complex assay; conditions: at 10 µM
[5] = target: T3, Mitogen-activated protein kinase kinase kinase 7 (Homo sapiens) (UniProt O43318); experiment: Selectivity interaction (KinomeScan (DiscoverX)) EUB0000695a MAP3K7; conditions: at 100 nM
T3 sequence (whole entry): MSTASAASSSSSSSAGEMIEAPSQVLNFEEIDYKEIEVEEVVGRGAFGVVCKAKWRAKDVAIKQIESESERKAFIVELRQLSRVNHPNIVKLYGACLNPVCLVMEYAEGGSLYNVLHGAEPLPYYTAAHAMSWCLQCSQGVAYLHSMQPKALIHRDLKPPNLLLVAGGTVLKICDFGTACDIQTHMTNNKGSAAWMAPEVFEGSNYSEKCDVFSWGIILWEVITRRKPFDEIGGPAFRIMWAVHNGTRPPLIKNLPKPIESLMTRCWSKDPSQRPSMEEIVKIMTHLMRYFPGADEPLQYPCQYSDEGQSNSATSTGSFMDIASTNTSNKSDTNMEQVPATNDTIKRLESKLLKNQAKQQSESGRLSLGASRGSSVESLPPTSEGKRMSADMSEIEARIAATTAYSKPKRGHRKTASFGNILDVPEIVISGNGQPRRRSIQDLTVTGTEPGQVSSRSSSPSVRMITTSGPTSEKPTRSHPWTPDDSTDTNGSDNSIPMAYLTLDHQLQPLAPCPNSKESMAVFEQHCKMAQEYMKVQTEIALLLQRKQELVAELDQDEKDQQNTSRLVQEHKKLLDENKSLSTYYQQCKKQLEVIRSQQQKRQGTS

[6] = target: Mitogen-activated protein kinase kinase kinase 20 (Homo sapiens) (UniProt Q9NYL2); experiment: Selectivity interaction (KinomeScan (DiscoverX)) EUB0000695a MAP3K20; conditions: at 100 nM
Chain of Mitogen-activated protein kinase kinase kinase 20 (Homo sapiens) (Q9NYL2 2-800 limits assumed): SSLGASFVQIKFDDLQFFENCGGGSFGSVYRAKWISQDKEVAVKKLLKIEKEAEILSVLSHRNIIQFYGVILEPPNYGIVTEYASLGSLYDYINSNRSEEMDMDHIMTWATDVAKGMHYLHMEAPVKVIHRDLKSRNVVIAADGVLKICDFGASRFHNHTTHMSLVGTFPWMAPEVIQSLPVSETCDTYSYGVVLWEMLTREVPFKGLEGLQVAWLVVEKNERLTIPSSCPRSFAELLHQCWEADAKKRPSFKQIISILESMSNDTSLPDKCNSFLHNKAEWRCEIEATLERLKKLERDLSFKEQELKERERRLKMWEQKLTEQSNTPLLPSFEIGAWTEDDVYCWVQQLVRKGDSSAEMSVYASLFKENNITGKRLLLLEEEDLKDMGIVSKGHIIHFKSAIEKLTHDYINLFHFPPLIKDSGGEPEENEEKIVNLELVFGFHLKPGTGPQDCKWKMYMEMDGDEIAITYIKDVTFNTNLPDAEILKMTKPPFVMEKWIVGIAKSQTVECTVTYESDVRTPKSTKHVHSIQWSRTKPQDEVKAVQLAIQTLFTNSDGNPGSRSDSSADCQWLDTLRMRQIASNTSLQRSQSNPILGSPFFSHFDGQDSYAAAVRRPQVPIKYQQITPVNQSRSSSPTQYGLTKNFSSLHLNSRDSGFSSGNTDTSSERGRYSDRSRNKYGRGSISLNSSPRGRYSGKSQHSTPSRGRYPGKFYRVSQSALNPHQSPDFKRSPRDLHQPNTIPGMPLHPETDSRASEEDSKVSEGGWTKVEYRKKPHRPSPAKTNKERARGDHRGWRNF

For `CCC(=O)N1CCN(c2ccc(-n3c(=O)ccc4cnc5ccc(-c6cnc7ccccc7c6)cc5c43)cc2C(F)(F)F)CC1`, the % of control [1] was 100%.
In the case of `C=CC(=O)Nc1ccc(C(=O)Nc2[nH]nc3c2CN(C(=O)N[C@H](CN(C)C)c2ccccc2)C3(C)C)cc1`, the % of engagement [2] is reported as 11.1%.
For `CCC(=O)N1CC[C@H](Nc2ncnc3c2CN(c2cnc(OC)c(C(F)(F)F)c2)CC3)C1` [LENIOLISIB], the IC50 [3] was > 10 µM.
`Cn1cc(-n2cnc3c(NCc4nc5cc(Cl)c(Cl)cc5[nH]4)nc(N4CCOCC4)nc32)cn1` showed a % of inhibition [4] of 63.9%.
`Cc1cc(F)c(C(=O)Nc2cccc(-c3nncn3C(C)C)n2)cc1-n1cnc(C2CC2)c1` showed a % of control [5] of 81% and a % of control [6] of 96%.
